Assay results: paper PMC6001238, “Iterative Chemical Engineering of Vancomycin Leads to Novel Vancomycin Analogs With a High in Vitro Therapeutic Index” (Frontiers in Microbiology, 2018)
Converted amounts (≈) assume the structure as drawn. Read-outs that look alike come from different tables or passages of the source.

What was measured:
[1] = test system: human cervix carcinoma (HeLa) cells; experiment: Cytostatic activity, HeLa cell proliferation; assay type: cell-based; details: mean ± SD of three experiments; highest concentration tested 250 µM; 4 days; read-out: Toxicity (IC50) HeLa
Outline: (§1)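 Coulter counter cell counts after 37°C culture with compound; IC50 = concentration giving 50% growth inhibition vs negative control. Incubation: L1210 2 d, CEM 3 d, HeLa 4 d. Suspension density before mixing with an equal volume of dilution: 300,000–500,000 cells/mL.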

VE 150 (VanB) = experiment: MIC, VanB-type VRE strain VE 150; assay type: cell-based, Enterococcus; details: VE 150, VanB; read-out: MIC
Description: (§2) The minimum inhibitory concentration (MIC) was determined using the broth microdilution method according to the antimicrobial susceptibility testing standards of the clinical and laboratory standards institute ([Clinical and Laboratory Standards Institute [CLSI], 2012]). Ultrapure water and non-inoculated broth were used as controls. In one case, a final concentration of 10 μM vancomycin was included with the vancomycin analog or control antibiotic.

VE 157 (VanB) = experiment: MIC, VanB-type VRE strain VE 157; assay type: cell-based, Enterococcus; details: VE 157, VanB; read-out: MIC
Description: as §2

MRSA KS89 = experiment: MIC, broth microdilution, MRSA KS89; assay type: cell-based, Staphylococcus aureus
Outline: (§3)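 CLSI broth microdilution; water and uninoculated-broth controls; one arm supplemented with vancomycin, final 10 μM, given with analogue or control antibiotic.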

E. faecalis VRE 53 = experiment: MIC, broth microdilution, vancomycin-resistant E. faecalis VRE 53 (VanA); assay type: cell-based, Enterococcus faecalis
Outline: as §3

VE 148 (VanB) = experiment: MIC, VanB-type VRE strain VE 148; assay type: cell-based, Enterococcus; details: VE 148, VanB; read-out: MIC
Description: as §2

[2] = test system: 24 clinical MRSA isolates; experiment: MIC against a set of 24 clinical MRSA isolates (range, MIC50, TI); assay type: cell-based, Staphylococcus aureus
Description: as §2

E. faecalis VSE 1 = experiment: MIC, broth microdilution, vancomycin-sensitive E. faecalis (VSE 1); assay type: cell-based, Enterococcus faecalis
Outline: as §3

VE 152 (VanB) = experiment: MIC, VanB-type VRE strain VE 152; assay type: cell-based, Enterococcus; details: VE 152, VanB; read-out: MIC
Description: as §2

[3] = test system: human T-lymphocyte (CEM) cells; experiment: Cytostatic activity, CEM cell proliferation; assay type: cell-based; details: mean ± SD of three experiments; highest concentration tested 250 µM; 3 days; read-out: Toxicity (IC50) CEM
Outline: as §1

VE 82 (VanC1) = experiment: MIC, VanC1-type VRE strain VE 82; assay type: cell-based, Enterococcus gallinarum; details: VE 82, VanC1; read-out: MIC
Description: as §2

[4] = test system: Murine leukemia (L1210) cells; experiment: Cytostatic activity, L1210 cell proliferation; assay type: cell-based; details: mean ± SD of three experiments; highest concentration tested 250 µM; 2 days; read-out: Toxicity (IC50) L1210
Outline: as §1

33 clinical VRE isolates = experiment: MIC against a set of 33 clinical VRE isolates (range, MIC50, TI); assay type: cell-based, Enterococcus faecalis
Description: as §2

E. faecalis VRE 37 = experiment: MIC, broth microdilution, vancomycin-resistant E. faecalis VRE 37 (VanA); assay type: cell-based, Enterococcus faecalis
Outline: as §3

E. faecalis VRE 29 = experiment: MIC, broth microdilution, vancomycin-resistant E. faecalis VRE 29 (VanA); assay type: cell-based, Enterococcus faecalis
Outline: as §3

VRE39 = experiment: MIC in the absence and presence of 10 µM vancomycin (vanA induction); assay type: cell-based, Enterococcus faecalis
Description: as §2

[5] = test system: S. aureus VSSA (ATCC 6538); experiment: MIC, broth microdilution, vancomycin-sensitive S. aureus (VSSA/MSSA, ATCC 6538); assay type: cell-based, Staphylococcus aureus
Outline: as §3

[6] = test system: L1210, CEM and HeLa cell lines; experiment: Cytostatic activity, average or summary over L1210, CEM and HeLa; assay type: cell-based
Outline: as §1

MRSA = experiment: Minimum bactericidal concentration against MRSA; assay type: cell-based, Staphylococcus aureus
Description: Plates were incubated overnight at 37°C and colony growth was inspected.

S. aureus VISA/HIP5827 = experiment: MIC, broth microdilution, vancomycin-intermediate S. aureus VISA HIP5827; assay type: cell-based, Staphylococcus aureus
Outline: as §3

E. faecalis VRE 6 = experiment: MIC, broth microdilution, vancomycin-resistant E. faecalis VRE 6 (VanA); assay type: cell-based, Enterococcus faecalis
Outline: as §3

VE 149 (VanB) = experiment: MIC, VanB-type VRE strain VE 149; assay type: cell-based, Enterococcus; details: VE 149, VanB; read-out: MIC
Description: as §2

S. aureus VRSA = experiment: MIC, broth microdilution, vancomycin-resistant S. aureus (VRSA); assay type: cell-based, Staphylococcus aureus
Outline: as §3

CNC(CC(C)C)C(=O)NC1C(=O)NC(CC(N)=O)C(=O)NC2C(=O)NC3C(=O)NC(C(=O)NC(C(=O)NCC(=O)Nc4ccc(-c5ccccc5)cc4)c4cc(O)cc(O)c4-c4cc3ccc4O)C(O)c3ccc(c(Cl)c3)Oc3cc2cc(c3OC2OC(CO)C(O)C(O)C2OC2CC(C)(N)C(O)C(C)O2)Oc2ccc(cc2Cl)C1O (stereo not shown) [Vanc-83]
IC50 [1]: 105 ± 27 µM | MIC (VE 150 (VanB)): 1.56 µM (≈ 2.59 µg/mL) | MIC (VE 157 (VanB)): 1.56 µM (≈ 2.59 µg/mL) | MIC-fold improvement vs. vancomycin (MRSA KS89; MRSA KS8, ratio of MIC of vancomycin and MIC of analogue): 4 | MIC (MRSA KS89; Staphylococcus aureus MRSA KS8, read-out: MIC): 0.20 µM (≈ 0.332 µg/mL) | MIC (E. faecalis VRE 53; Enterococcus faecalis VRE 53 (vancomycin-resistant), read-out: MIC): 1.56 µM (≈ 2.59 µg/mL) | MIC-fold improvement vs. vancomycin (E. faecalis VRE 53; VRE 53, ratio of MIC of vancomycin and MIC of analogue): 256 | MIC (VE 148 (VanB)): 1.56 µM (≈ 2.59 µg/mL) | MIC Range ([2]; 24 clinical MRSA isolates): 0.10 to 0.78 µM | TI (IC50/MIC50) ([2]; in vitro therapeutic index, MRSA): 535 | MIC50 ([2]; median MIC, 24 clinical MRSA isolates, read-out: MIC50): 0.20 µM (≈ 0.332 µg/mL) | MIC (E. faecalis VSE 1; Enterococcus faecalis VSE 1 (vancomycin-sensitive), read-out: MIC): 0.39 µM (≈ 0.646 µg/mL) | MIC-fold improvement vs. vancomycin (E. faecalis VSE 1; VSE 1, ratio of MIC of vancomycin and MIC of analogue): 4 | MIC (VE 152 (VanB)): 1.56 µM (≈ 2.59 µg/mL) | IC50 [3]: 37 ± 6 µM | MIC (VE 82 (VanC1)): 0.78 µM (≈ 1.29 µg/mL) | IC50 [4]: 179 ± 41 µM | MIC Range (33 clinical VRE isolates; 33 clinical VRE isolates): 0.78 to 3.13 µM | TI (IC50/MIC50) (33 clinical VRE isolates; in vitro therapeutic index, VRE): 69 | MIC (E. faecalis VRE 37; Enterococcus faecalis VRE 37 (vancomycin-resistant), read-out: MIC): 1.56 µM (≈ 2.59 µg/mL) | MIC-fold improvement vs. vancomycin (E. faecalis VRE 37; VRE 37, ratio of MIC of vancomycin and MIC of analogue): 256 | MIC (E. faecalis VRE 29; Enterococcus faecalis VRE 29 (vancomycin-resistant), read-out: MIC): 1.56 µM (≈ 2.59 µg/mL) | MIC-fold improvement vs. vancomycin (E. faecalis VRE 29; VRE 29, ratio of MIC of vancomycin and MIC of analogue): 256 | MIC (VRE39; VRE39, 0 µM vancomycin): 1.56 µM | MIC (VRE39; VRE39, 10 μM vancomycin added): 3.13 µM | MIC ([5]; Staphylococcus aureus VSSA, read-out: MIC): 0.20 µM (≈ 0.332 µg/mL) | MIC-fold improvement vs. vancomycin ([5]; VSSA, ratio of MIC of vancomycin and MIC of analogue): 4 | IC50 ([6]; average IC50 used for TI in Table S5, >250 entered as 250, read-out: IC50): 107 µM | IC50 ([6]; average of L1210, CEM and HeLa, read-out: Toxicity (IC50) Average): 107 µM | MBC relative to MIC (MRSA): MBC equaling their MIC values | MIC (S. aureus VISA/HIP5827; Staphylococcus aureus VISA/HIP5827, read-out: MIC): 1.56 µM (≈ 2.59 µg/mL) | MIC-fold improvement vs. vancomycin (S. aureus VISA/HIP5827; VISA/HIP5827, ratio of MIC of vancomycin and MIC of analogue): 4 | MIC (E. faecalis VRE 6; Enterococcus faecalis VRE 6 (vancomycin-resistant), read-out: MIC): 0.78 µM (≈ 1.29 µg/mL) | MIC-fold improvement vs. vancomycin (E. faecalis VRE 6; VRE 6, ratio of MIC of vancomycin and MIC of analogue): 256 | MIC (VE 149 (VanB)): 1.56 µM (≈ 2.59 µg/mL) | MIC (S. aureus VRSA; Staphylococcus aureus VRSA, read-out: MIC): 0.39 µM (≈ 0.646 µg/mL) | MIC-fold improvement vs. vancomycin (S. aureus VRSA; VRSA, ratio of MIC of vancomycin and MIC of analogue): 256
